Data on four molecules can be found in patent US20030181380A1, “Modulating lymphoid commitment and survival” (priority 2002, published 2003).

Experiment [1] deals with Notch receptors on human B-ALL cell line JM-1. The experiment is described as follows: cell-based or functional assay.
The subject of the next experiment is JM-1 cells. The experiment is described as follows: Tamoxifen-inducible ICN1 (ICN1-ER-BD) in JM-1 subclones: PI, AnnexinV, RT-PCR. The settings on record: JM-1 subclones with tamoxifen-inducible ICN1. It counts as cell-based, human. From the text: To further characterize this effect, a retroviral vector containing a tamoxifen-inducible-ICN1 vector co-expressing GFP (ICN1+GFP) was stably transduced into three of the JM-1 human B-ALL leukemia/lymphoma′cell lines. To accomplish this, the estrogen receptor hormone-binding domain (ER-BD) was fused via a linker to ICN1. This fusion product was expressed on the MigR1 (MSCV-based) retroviral vector, which co-expresses GFP. JM-1 cells were transduced with this construct and subclones were selected for high expression. The GFP positive populations were sub cloned and individual clones expressing various levels of ICN1+GFP were analyzed after exposure to tamoxifen (FIG. 18A). Subclone JM-1.2 was exposed to tamoxifen and RT-PCR was performed (FIG. 18B). Growth arrest was shown by PI staining, apoptosis was measured by AnnexinV staining, and increased levels of Hairy expression were measured by RT-PCR. The percentage of non-GO/G1 cells was normalized to pre-treatment levels by duplicate experiments. The results of three experiments averaged ± standard deviation compared with EtOH control, and the average of duplicate experiments was relative to GAPDH expression and normalized to day 0 (pre-treatment) levels.
This effect was similar to the results seen with non-induced constructs.

For the next experiment, the system named is V9 cells. The experiment is described as follows: AnnexinV staining of ICN1-transduced V9 cells cultured with caspase inhibitor. The format is cell-based, murine. The method, then: Apoptosis is frequently mediated by caspases, a family of cysteine proteases, whose activation leads to cell death. To further characterize the ICN1-induced cell death, ICN1-transduced V9 cells were cultured with either the general caspase inhibitor, zVAD (50 μM in DMSO), or DMSO alone (zVAD vehicle only), and analyzed 22 and 44 hours later (FIG. 3B). When cultured in control media (no zVAD), the great majority of GFP+ cells became AnnexinV positive by 22 hours post transduction, and few GFP positive cells remained at 44 hours (FIG. 3B, middle panel).
This may due to the incomplete inhibition of zVAD on the targeted caspases or, alternatively, caspase-independent pathways also contribute the B cell death.

Residues, ends and D or L forms follow the SMILES beside them. *: point of attachment. Cbz = O=C(OCc1ccccc1)*; CH2F = FC*

On to “human Jagged2 (from UniProt Q9Y219 24-1238) (ligand)”, for which the Hairy expression in B-ALL cells by RT-PCR at 24 hours of co-culture in experiment [1] was 5 fold.

With “human Jagged1 (from UniProt P78504 34-1218) (ligand)”, the Hairy expression in B-ALL cells by RT-PCR at 24 hours of co-culture in experiment [1] was 5 fold.

As for `CC/C(=C(\c1ccccc1)c1ccc(OCCN(C)C)cc1)c1ccccc1` [tamoxifen], the “cell cycle and apoptosis after induction” value in the experiment on JM-1 cells is “cell cycle (growth) arrest and apoptosis”.

As for `CC(NC(=O)C(NC(=O)OCc1ccccc1)C(C)C)C(=O)NC(CC(=O)O)C(=O)CF` (stereo not drawn) [zVAD] (Cbz-Val-Ala-Asp-CH2F; configuration not given here), in the experiment on V9 cells (50 μM zVAD, 22 hours), the “ICN1-transduced cells becoming AnnexinV positive” value is on record as “only a few”. Moreover, in the experiment with V9 cells (zVAD, up to 44 hours post-transduction), the “protection of V9 cells from apoptosis” value was “only partially protected”.
